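Five concentrations, 48 hours, 96-well plates. At the GI50, growth is halved.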 Calls of active or inactive are those of the source. Rule as the data show it: active = GI50 up to about 1.1 µM and inactive = higher.
Legend:
Experiment in all cases: DTP human tumour cell line panel, 48 h
NCI-H23 = system: NCI-H23
OVCAR-8 = system: OVCAR-8
HL-60 = system: HL-60
HCC 2998 = system: HCC 2998
SF-295 = system: SF-295
Malme-3M = system: Malme-3M
NCI-H460 = system: NCI-H460
COLO 205 = system: COLO 205
MDA-N = system: MDA-N
LOX IMVI = system: LOX IMVI
K562 = system: K562
SF-268 = system: SF-268
OVCAR-3 = system: OVCAR-3
T47D = system: T47D
MCF7 = system: MCF7
UACC-62 = system: UACC-62
M14 = system: M14
SN12C = system: SN12C
DU-145 = system: DU-145

Compound	GI50 (NCI-H23)	GI50 (OVCAR-8)	GI50 (HL-60)	GI50 (HCC 2998)	GI50 (SF-295)	GI50 (Malme-3M)	GI50 (NCI-H460)	GI50 (COLO 205)	GI50 (MDA-N)	GI50 (LOX IMVI)	GI50 (K562)	GI50 (SF-268)	GI50 (OVCAR-3)	GI50 (T47D)	GI50 (MCF7)	GI50 (UACC-62)	GI50 (M14)	GI50 (SN12C)	GI50 (DU-145)
CCOC(=O)c1c(SCCN2CCOCC2)n(-c2ccccc2)c(=S)n(-c2ccccc2)c1=O	32.4 µM (inactive)	> 100 µM (inactive)	20.8 µM (inactive)	> 100 µM (inactive)	25.6 µM (inactive)	> 100 µM (inactive)	> 100 µM (inactive)	> 100 µM (inactive)	36.5 µM (inactive)	18.5 µM (inactive)	19 µM (inactive)	37.4 µM (inactive)	49.2 µM (inactive)	31.8 µM (inactive)	21.2 µM (inactive)	49.8 µM (inactive)	44.8 µM (inactive)	> 100 µM (inactive)	> 10 µM (inactive)
c1ccc2cc(CNCCOCCOCCNCc3ccc4ccccc4c3)ccc2c1	2 µM (inactive)	1.77 µM (inactive)	1.85 µM (inactive)	0.208 µM (active)	1.64 µM (inactive)	1.76 µM (inactive)	1.64 µM (inactive)	1.48 µM (inactive)	1.65 µM (inactive)	1.46 µM (inactive)	0.446 µM (active)	1.97 µM (inactive)	1.67 µM (inactive)	2.74 µM (inactive)	1.79 µM (inactive)	2.06 µM (inactive)	1.95 µM (inactive)	2.16 µM (inactive)	1.78 µM (inactive)
Cn1nc(-c2ccccc2)c2c(-c3ccccc3)c3cc(Cl)ccc3nc21	> 100 µM (inactive)	> 100 µM (inactive)	18.2 µM (inactive)	> 100 µM (inactive)	97.1 µM (inactive)	> 100 µM (inactive)	75.7 µM (inactive)	–	> 100 µM (inactive)	> 90.4 µM (inactive)	> 100 µM (inactive)	> 100 µM (inactive)	> 100 µM (inactive)	> 100 µM (inactive)	82 µM (inactive)	> 100 µM (inactive)	> 100 µM (inactive)	> 100 µM (inactive)	> 100 µM (inactive)
CCOC(=O)/C(=C\NCC(OCC)OCC)c1nc2ccccc2[nH]1	21.4 µM (inactive)	32.8 µM (inactive)	23.9 µM (inactive)	20.1 µM (inactive)	32.1 µM (inactive)	25.8 µM (inactive)	23.1 µM (inactive)	16.5 µM (inactive)	29 µM (inactive)	24.8 µM (inactive)	22.8 µM (inactive)	32.6 µM (inactive)	22 µM (inactive)	21.6 µM (inactive)	30.1 µM (inactive)	16.3 µM (inactive)	36.1 µM (inactive)	39.2 µM (inactive)	43.7 µM (inactive)
Nc1n[n+]([O-])c2cnccc2[n+]1[O-]	42.2 µM (inactive)	31.3 µM (inactive)	13.6 µM (inactive)	> 100 µM (inactive)	45.6 µM (inactive)	> 10 µM (inactive)	34.8 µM (inactive)	39.6 µM (inactive)	20.7 µM (inactive)	52.2 µM (inactive)	–	93.8 µM (inactive)	35.4 µM (inactive)	59.7 µM (inactive)	> 10 µM (inactive)	30.1 µM (inactive)	22.3 µM (inactive)	44.2 µM (inactive)	> 100 µM (inactive)
CC(=O)OC1CCn2c1nc1c2C(=O)C=C(N2CC2)C1=O (configuration not stated)	0.269 µM (active)	0.402 µM (active)	0.17 µM (active)	1.45 µM (inactive)	1.81 µM (inactive)	0.0311 µM (active)	1.15 µM (inactive)	0.0697 µM (active)	0.332 µM (active)	0.0719 µM (active)	0.394 µM (active)	0.185 µM (active)	0.215 µM (active)	0.745 µM (active)	0.173 µM (active)	0.0697 µM (active)	0.0519 µM (active)	0.65 µM (active)	3.31 µM (inactive)
CCOC(=O)C1(C(=O)OCC)C[C@]23OCCC(=O)[C@H]2[C@H]2C(=O)OC(C)(C)O[C@]23C1	> 100 µM (inactive)	> 100 µM (inactive)	> 100 µM (inactive)	> 100 µM (inactive)	> 100 µM (inactive)	> 100 µM (inactive)	> 100 µM (inactive)	> 100 µM (inactive)	> 100 µM (inactive)	> 100 µM (inactive)	–	> 100 µM (inactive)	> 100 µM (inactive)	> 100 µM (inactive)	> 100 µM (inactive)	> 100 µM (inactive)	> 100 µM (inactive)	> 100 µM (inactive)	> 100 µM (inactive)
CC1(C)CC(=O)/C(=C/C2CCNC2=S)C(=O)N1 (configuration not stated)	> 100 µM (inactive)	> 100 µM (inactive)	> 100 µM (inactive)	> 100 µM (inactive)	> 100 µM (inactive)	> 100 µM (inactive)	> 100 µM (inactive)	> 100 µM (inactive)	> 100 µM (inactive)	> 100 µM (inactive)	> 100 µM (inactive)	> 100 µM (inactive)	> 100 µM (inactive)	> 100 µM (inactive)	> 100 µM (inactive)	> 100 µM (inactive)	> 100 µM (inactive)	82.4 µM (inactive)	> 100 µM (inactive)
CC1CC2OC(=O)C(C)C2CC2(C)C(OC3OC(CO)C(O)C(O)C3O)OCCC12 (configuration not stated)	> 100 µM (inactive)	> 100 µM (inactive)	> 100 µM (inactive)	> 100 µM (inactive)	> 100 µM (inactive)	> 100 µM (inactive)	> 100 µM (inactive)	> 100 µM (inactive)	> 100 µM (inactive)	> 100 µM (inactive)	> 100 µM (inactive)	> 100 µM (inactive)	> 100 µM (inactive)	> 100 µM (inactive)	> 100 µM (inactive)	16.9 µM (inactive)	> 100 µM (inactive)	> 100 µM (inactive)	> 100 µM (inactive)
COC(=O)c1ccc2c(c1)CC1(C2)Cc2cc3c(cc2C1)CCC3	> 100 µM (inactive)	> 100 µM (inactive)	> 100 µM (inactive)	> 100 µM (inactive)	> 100 µM (inactive)	79.6 µM (inactive)	> 100 µM (inactive)	–	> 100 µM (inactive)	> 100 µM (inactive)	> 100 µM (inactive)	> 100 µM (inactive)	> 100 µM (inactive)	> 100 µM (inactive)	> 100 µM (inactive)	–	> 100 µM (inactive)	–	> 100 µM (inactive)
CCCCc1ccc(Nc2ncc3ncn(COCCO)c3n2)cc1	27.7 µM (inactive)	29 µM (inactive)	23.8 µM (inactive)	20.3 µM (inactive)	27.3 µM (inactive)	23.1 µM (inactive)	22.4 µM (inactive)	36.1 µM (inactive)	32 µM (inactive)	17.9 µM (inactive)	14 µM (inactive)	40.9 µM (inactive)	22.8 µM (inactive)	28.4 µM (inactive)	28.5 µM (inactive)	25.6 µM (inactive)	21.5 µM (inactive)	46.2 µM (inactive)	33.3 µM (inactive)
O=C(NC(=O)c1ccccc1)OC(c1ccccc1)C1CO1 (configuration not stated)	> 100 µM (inactive)	> 100 µM (inactive)	> 100 µM (inactive)	> 100 µM (inactive)	> 100 µM (inactive)	> 100 µM (inactive)	> 100 µM (inactive)	> 100 µM (inactive)	> 100 µM (inactive)	> 100 µM (inactive)	> 100 µM (inactive)	> 100 µM (inactive)	> 100 µM (inactive)	> 100 µM (inactive)	> 100 µM (inactive)	> 100 µM (inactive)	> 100 µM (inactive)	> 100 µM (inactive)	> 100 µM (inactive)
N#Cc1ncn(-c2ccccc2)c1N	> 100 µM (inactive)	> 100 µM (inactive)	> 100 µM (inactive)	> 100 µM (inactive)	> 100 µM (inactive)	> 100 µM (inactive)	> 100 µM (inactive)	> 100 µM (inactive)	> 100 µM (inactive)	> 100 µM (inactive)	> 100 µM (inactive)	> 100 µM (inactive)	> 100 µM (inactive)	> 100 µM (inactive)	> 100 µM (inactive)	> 100 µM (inactive)	> 100 µM (inactive)	> 100 µM (inactive)	> 100 µM (inactive)
CCOc1ccnc2c(OC)c(C)c3nc4ccccc4nc3c12	> 100 µM (inactive)	57.4 µM (inactive)	> 100 µM (inactive)	> 100 µM (inactive)	> 100 µM (inactive)	> 100 µM (inactive)	> 100 µM (inactive)	> 100 µM (inactive)	> 100 µM (inactive)	> 100 µM (inactive)	98.6 µM (inactive)	> 100 µM (inactive)	> 100 µM (inactive)	3.31 µM (inactive)	26 µM (inactive)	–	> 100 µM (inactive)	> 100 µM (inactive)	41 µM (inactive)
CC(=O)OC1C2CCC3C(C)(O)C4CC(O)C(C)(C)C4(O)C(O)CC13CC2(C)O (configuration not stated)	> 100 µM (inactive)	> 100 µM (inactive)	> 100 µM (inactive)	> 100 µM (inactive)	> 100 µM (inactive)	–	> 10 µM (inactive)	> 100 µM (inactive)	> 100 µM (inactive)	> 100 µM (inactive)	> 100 µM (inactive)	> 100 µM (inactive)	> 100 µM (inactive)	> 100 µM (inactive)	> 100 µM (inactive)	> 100 µM (inactive)	> 100 µM (inactive)	> 100 µM (inactive)	> 100 µM (inactive)
